Our source for the EC50, IC50 and Activity values is ChEMBL document CHEMBL1139472, “Synthesis of N-{4-[(2,4-diamino-5-methyl-4,7-dihydro-3H-pyrrolo[2,3-d]pyrimidin-6-yl)thio]benzoyl}-L-glutamic acid and N-{4-[(2-amino-4-oxo-5-methyl-4,7-dihydro-3H-pyrrolo[2,3-d]pyrimidin-6-yl)thio]benzoyl}-L-glutamic acid as dual inhibitors of dihydrofolate reductase and thymidylate synthase and …” (J Med Chem, 2005).

Molecules are shown by their SMILES.

Experiment [1] relates to CCRF-CEM. The experiment can be described thus: cells. The conditions noted are these: Homo sapiens.
Description: Growth inhibition of human CCRF-CEM cells
The target of experiment [2] is T1, Dihydrofolate reductase (Escherichia coli, UniProt P0ABQ4).
T1 sequence (P0ABQ4 whole entry): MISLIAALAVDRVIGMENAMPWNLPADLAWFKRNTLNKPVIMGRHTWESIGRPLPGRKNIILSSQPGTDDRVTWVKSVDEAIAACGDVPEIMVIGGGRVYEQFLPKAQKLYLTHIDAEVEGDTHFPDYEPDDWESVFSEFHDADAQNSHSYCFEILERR
Description: Inhibition of Escherichia coli DHFR

For experiment [3], the system named is CCRF-CEM. The experiment can be described thus: cells. The conditions noted are these: Homo sapiens, 120 h.
Experiment [4] deals with T2, Bifunctional dihydrofolate reductase-thymidylate synthase (Toxoplasma gondii, UniProt Q07422).
T2 sequence (Q07422 whole entry): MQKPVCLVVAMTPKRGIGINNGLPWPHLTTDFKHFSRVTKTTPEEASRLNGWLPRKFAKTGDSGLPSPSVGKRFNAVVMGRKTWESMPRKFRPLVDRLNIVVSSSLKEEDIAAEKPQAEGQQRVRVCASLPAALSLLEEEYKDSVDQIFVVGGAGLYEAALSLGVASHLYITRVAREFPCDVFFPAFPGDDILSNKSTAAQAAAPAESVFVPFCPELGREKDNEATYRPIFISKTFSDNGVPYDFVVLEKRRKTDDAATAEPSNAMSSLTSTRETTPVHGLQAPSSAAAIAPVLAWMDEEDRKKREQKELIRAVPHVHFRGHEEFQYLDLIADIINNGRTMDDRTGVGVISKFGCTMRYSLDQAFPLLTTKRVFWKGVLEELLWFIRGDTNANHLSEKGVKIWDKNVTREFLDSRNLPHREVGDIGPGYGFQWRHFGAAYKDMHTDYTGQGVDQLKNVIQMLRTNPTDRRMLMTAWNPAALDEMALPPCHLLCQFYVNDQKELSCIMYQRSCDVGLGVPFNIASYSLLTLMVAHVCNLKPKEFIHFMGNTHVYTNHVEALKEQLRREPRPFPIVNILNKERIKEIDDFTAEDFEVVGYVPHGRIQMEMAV
The experiment can be described thus: Inhibition of Toxoplasma gondii DHFR.

Experiment [5] concerns CCRF-CEM. The experiment can be described thus: cells. As to conditions: Homo sapiens, 120 h. This is another data set of the same source.
Experiment [6] has as its system CCRF-CEM. As to the kind of experiment: cells. As to conditions: Homo sapiens, 120 h. This is another data set of the same source.
Experiment [7] deals with Dihydrofolate reductase (Homo sapiens, UniProt P00374).
The target of experiment [8] is T2, Bifunctional dihydrofolate reductase-thymidylate synthase. As to the kind of experiment: Inhibition of Toxoplasma gondii thymidylate synthase.
For experiment [9], the target named is Thymidylate synthase (Escherichia coli, UniProt C3SWJ7). As to the kind of experiment: Inhibition of Escherichia coli thymidylate synthase.
Experiment [10] concerns the target Thymidylate synthase (Homo sapiens, UniProt P04818).
Description: Inhibition of human thymidylate synthase
In experiment [11] the test system is CCRF-CEM. The experiment can be described thus: Protection against 4000 nM N-{4-[(2,4-diamino-5-methyl-4, 7-dihydro-3H-pyrrolo[2,3-d]pyr imidin-6-yl)thio]benzoyl}-L-gl utamic acid-induced growth inhibition in human CCRF-CEM cells assessed as growth at 5 uM relative to control. It counts as functional. Also noted: scale not given: the % may be the effect or the level left.

Experiment [12] has as its system CCRF-CEM. As to the kind of experiment: Protection against 40 nM methotrexate-induced growth inhibition in human CCRF-CEM cells assessed as growth at 5 uM relative to control. In kind it is functional. Also noted: scale not given: the % may be the effect or the level left.
The subject of experiment [13] is CCRF-CEM. As to the kind of experiment: Protection of drug-induced growth inhibition by 0.1 uM leucovorin in human CCRF-CEM cells assessed as growth at 20 nM relative to control. It counts as functional. Also noted: scale not given: the % may be the effect or the level left.
Experiment [14] concerns CCRF-CEM. The experiment can be described thus: Protection of drug-induced growth inhibition by 10 uM leucovorin in human CCRF-CEM cells assessed as growth at 20 nM relative to control. In kind it is functional. Also noted: scale not given: the % may be the effect or the level left.
Experiment [15] has as its system CCRF-CEM. As to the kind of experiment: Cell growth in human CCRF-CEM cells at 20 nM relative to control. In kind it is functional.
Experiment [16] has as its system CCRF-CEM. As to the kind of experiment: Protection of drug-induced growth inhibition by 1 uM leucovorin in human CCRF-CEM cells assessed as growth at 20 nM relative to control. In kind it is functional. Also noted: scale not given: the % may be the effect or the level left.
In experiment [17] the test system is CCRF-CEM. The experiment can be described thus: Cell growth in human CCRF-CEM cells at 40 nM relative to control. It counts as functional.

Dihydrofolate reductase (Homo sapiens, UniProt P00374), sequence (P00374 whole entry): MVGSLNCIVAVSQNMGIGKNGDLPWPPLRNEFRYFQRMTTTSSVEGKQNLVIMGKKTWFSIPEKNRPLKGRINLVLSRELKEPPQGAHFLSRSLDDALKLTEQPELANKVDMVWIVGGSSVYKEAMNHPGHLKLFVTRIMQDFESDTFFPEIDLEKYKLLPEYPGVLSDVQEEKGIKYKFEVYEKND
Thymidylate synthase (Homo sapiens, UniProt P04818), sequence (P04818 whole entry): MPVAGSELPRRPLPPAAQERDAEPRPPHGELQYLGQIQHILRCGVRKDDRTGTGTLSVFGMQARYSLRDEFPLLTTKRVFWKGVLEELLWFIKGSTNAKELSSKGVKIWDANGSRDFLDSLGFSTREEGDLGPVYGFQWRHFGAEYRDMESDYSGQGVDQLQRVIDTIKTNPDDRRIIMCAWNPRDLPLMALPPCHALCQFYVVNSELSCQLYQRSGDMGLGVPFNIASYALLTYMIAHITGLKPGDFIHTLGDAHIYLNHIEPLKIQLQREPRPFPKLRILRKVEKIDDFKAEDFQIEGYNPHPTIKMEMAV
Thymidylate synthase (Escherichia coli, UniProt C3SWJ7), sequence (C3SWJ7 whole entry): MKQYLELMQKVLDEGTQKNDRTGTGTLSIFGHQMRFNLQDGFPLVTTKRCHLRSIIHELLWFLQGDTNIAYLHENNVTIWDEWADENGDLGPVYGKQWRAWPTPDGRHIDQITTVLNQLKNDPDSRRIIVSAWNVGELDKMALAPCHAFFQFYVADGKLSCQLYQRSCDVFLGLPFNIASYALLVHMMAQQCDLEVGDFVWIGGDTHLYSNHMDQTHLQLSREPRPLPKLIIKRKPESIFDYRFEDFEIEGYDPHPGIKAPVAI

In the case of `Cc1c(Sc2ccc(C(=O)N[C@@H](CCC(=O)O)C(=O)O)cc2)[nH]c2nc(N)[nH]c(=O)c12`, the EC50 in the experiment on CCRF-CEM [1], in the experiment on CCRF-CEM [3], in the experiment on CCRF-CEM [5] and with CCRF-CEM [6] was greater than 20 µM in each case. In addition, the IC50 – broadly, the midpoint of a concentration-inhibition curve – is greater than 240 µM against Dihydrofolate reductase [2]; 2.2 µM in experiment [4]; greater than 240 µM at Dihydrofolate reductase [7]; 3.6 µM in experiment [8]; greater than 180 µM against Thymidylate synthase [9]; 100 µM against Thymidylate synthase [10].
As for `Cc1cn([C@H]2C[C@H](O)[C@@H](CO)O2)c(=O)[nH]c1=O` [DOXRIBTIMINE], the Activity in the experiment on CCRF-CEM [11] is 20%; in the experiment on CCRF-CEM [12] it was 18%.
With `CN(Cc1cnc2nc(N)nc(N)c2n1)c1ccc(C(=O)N[C@@H](CCC(=O)O)C(=O)O)cc1` [METHOTREXATE], the Activity with CCRF-CEM [13] is recorded as 90%; with CCRF-CEM [14], 95%; in the experiment on CCRF-CEM [15], 5%; with CCRF-CEM [16] it was 96%; in the experiment on CCRF-CEM [17] it was 12%.
Consider `Cc1nc2ccc(CN(C)c3ccc(C(=O)N[C@@H](CCC(=O)O)C(=O)O)s3)cc2c(=O)[nH]1` [RALTITREXED], for which the IC50 against Dihydrofolate reductase [2] amounted to 23 µM.
